For 36 molecules, melting point results are on record in US6875761B2 (Eisai Co., Ltd., priority 1997, dated 2005).

Structures are written as SMILES. Structures can show the parent of a compound that is named as a salt.

By melting point is commonly meant the temperature of the solid-liquid transition.

Regarding `CCN1CCN(c2nc(-c3ccc(OC)cc3)cc3c(C)cccc23)CC1` (as salt: hydrochloride), the melting point fell in the range of 249 to 253 °C.
The same measure for `CCN1CCN(c2nc(-c3ccc(C4COCCO4)cc3)cc3ccccc23)CC1` (stereo not drawn) (as salt: hydrochloride) [Example 395, 1-(4-Ethylpiperazin-1-yl)-3-[4-(1,4-Dioxan-2-yl)Phenyl]Isoquinoline Dihydrochloride]: 163 to 166 °C (dec.).
The same measure for `CCN1CCN(c2nc(-c3ccc(CO)c(F)c3)cc3ccccc23)CC1` (as salt: hydrochloride) [Example 28, 1-(4-ethylpiperazin-1-yl)-3-[4-(4-hydroxymethyl-3-fluoro)phenyl]isoquinoline hydrochloride]: 228 °C (dec.); for `CCN1CCN(c2nc(-c3ccc(CC(C)CO)cc3)cc3ccccc23)CC1` (stereo not drawn) (as salt: oxalate) [Example 386, 1-(4-Ethylpiperazin-1-yl)-3-[4-(3-Hydroxy-2-Methylpropyl)Phenyl]Isoquinoline Oxalate]: 195 to 196 °C; for `CCN1CCN(c2nc(-c3ccc(C(C)(C)CCO)cc3)cc3ccccc23)CC1` (as salt: oxalate) [Example 390]: 134 to 135 °C.
Consider `CCN1CCN(c2nc(-c3ccc(OCCCN)cc3)cc3ccccc23)CC1` (as salt: hydrochloride), for which the melting point was 173 to 176 °C.
As for `CCCC(=O)NCc1ccc(-c2cc3ccccc3c(N3CCN(CC)CC3)n2)cc1` (as salt: hydrochloride) [Example 86, 3-(4-Propylcarbonylaminomethylphenyl)-1-(4-ethylpiperazin-1-yl)isoquinoline Hydrochloride], the melting point fell in the range of 126 to 128 °C.
For `CCN1CCN(c2nc(-c3csc(C4=CCOCC4)c3)cc3ccccc23)CC1` (as salt: hydrochloride) the value was 190 to 193 °C.
As for `CCN1CCN(c2nc(-c3ccc(C(=O)NCCO)cc3)cc3ccccc23)CC1` (as salt: hydrochloride) [Example 346, 1-(4-ethylpiperazin-1-yl)-3-{4-(N-(2-hydroxyethyl)carbamoyl]phenyl}isoquinoline dihydrochloride], the melting point is 154 to 155 °C.
The same measure for `CCN1CCN(c2nc(-c3ccc(CCCO)cc3)cc3ccoc23)CC1` (as salt: hydrochloride) [Example 299, 7-(1-ethylpiperazin-4-yl)-5-[4-(3-hydroxypropyl)phenyl]furo[2,3-c]pyridine dihydrochloride]: 126 to 130 °C; for `CCN1CCN(c2nc(-c3ccc(SC[C@@H](C)O)cc3)cc3ccsc23)CC1` (as salt: hydrochloride) [Example 444, 7-(4-ethylpiperazin-1-yl)-5-[4-(2-hydroxypropylthio)phenyl]thieno[2,3-c]pyridine dihydrochloride]: 98.5 to 99.5 °C; for `CCN1CCN(c2nc(-c3ccccc3OC)cc3ccc(OC)cc23)CC1` (as salt: hydrochloride): 178 to 179 °C.
For `CCN1CCN(c2nc(-c3ccc(C4=CCOCC4)cc3)cc3ccccc23)CC1` (as salt: hydrochloride) [Example 84, 3-[4-(5,6-Dihydro-2H-pyran-4-yl)phenyl]-1-(4-ethylpiperazin-1-yl)isoquinoline Hydrochloride] the value was 170 to 172 °C; for `CCCN(C)C(=O)c1ccc(-c2cc3ccccc3c(N3CCN(CC)CC3)n2)cc1` (as salt: oxalate) [Example 381], 131 to 132 °C.
For `CCN1CCN(c2nc(-c3ccc(CCO)cc3)cc3ccccc23)CC1` (as salt: hydrochloride) [Example 351, 1-(4-ethylpiperazin-1-yl)-3-[4-(2-hydroxyethyl)phenyl]isoquinoline dihydrochloride] the value was 134 to 136 °C; for `CCN1CCN(c2nc(-c3ccc(OCCO)cc3)cc3cccc(F)c23)CC1` (as salt: hydrochloride) [Example 234, 1-(1-ethylpiperazin-4-yl)-8-fluoro-3-[4-(2-hydroxyethoxy)phenyl]isoquinoline dihydrochloride], 215 to 219 °C; for `COc1ccc(-c2cc3ccccc3c(NCCN3CCOCC3)n2)cc1` (as salt: hydrochloride) [Example 323, 1-[2-(4-morpholinyl)ethyl]amino-3-(4-methoxyphenyl)isoquinoline dihydrochloride], 135 to 136 °C.
The molecule `CCN1CCN(c2nc(C3CCCc4cc(OC)ccc43)cc3ccccc23)CC1` (stereo not drawn) (as salt: oxalate) showed a melting point of 170 to 173 °C.
On to `CCN1CCN(c2nc(COc3ccc(OC)cc3)cc3ccccc23)CC1` (as salt: hydrochloride) [Example 424, 1-(4-ethylpiperazin-1-yl)-3-(4-methoxyphenoxymethyl)isoquinoline Hydrochloride], for which the melting point lay in the range of 101 to 102 °C.
Regarding `CCN1CCN(c2nc(-c3ccc(CCC(C)O)cc3)cc3cccnc23)CC1` (stereo not drawn) (as salt: hydrochloride) [Example 248, 8-(1-ethylpiperazin-4-yl)-6-[4-(3-hydroxybutyl)phenyl]-1,7-naphthyridine Dihydrochloride], the melting point lay in the range of 118 to 121 °C.
For `CCN1CCN(c2nc(-c3ccc(OCCO)cc3)cc3ccoc23)CC1` (as salt: oxalate) [Example 301, 7-(1-Ethylpiperazin-4-yl)-5-[4-(2-hydroxyethoxy)phenyl]furo[2,3-c]pyridine oxalate] the value was 145 to 152 °C.
In the case of `CCN1CCN(c2nc(-c3ccc(OCCOC)cc3)cc3ccccc23)CC1` (as salt: hydrochloride) [Example 42, 1-(4-ethylpiperazin-1-yl)-3-[4-(2-methoxyethoxy)phenyl]isoquinoline dihydrochloride], the melting point was 184.5 to 185 °C (dec.).
For `CCN1CCN(c2nc(-c3ccc(OCCO)c(Cl)c3)cc3ccccc23)CC1` (as salt: hydrochloride) [Example 39, 3-[3-chloro-4-(2-hydroxyethoxy)phenyl]-1-(4-ethylpiperazin-1-yl)isoquinoline hydrochloride] the value was 138 to 140 °C; for `CCN1CCN(c2nc(-c3ccc(OCCOC)c(OCCOC)c3)cc3ccccc23)CC1` (as salt: hydrochloride) [Example 43, 3-[3,4-Di(2-Methoxyethoxy)Phenyl]-1-(4-Ethylpiperazin-1-Yl)Isoquinoline Hydrochloride], 143 to 144 °C; for `CCN1CCN(c2nc(-c3ccc(CCCO)c(C#N)c3)cc3ccsc23)CC1` (as salt: oxalate) [Example 262, 5-[4-(3-hydroxypropyl)-3-cyanophenyl]-7-(4-ethylpiperazin-1-yl)thieno[2,3-c]pyridine Oxalate], 132 to 134 °C.
For `COc1ccc(-c2cc3ccccc3c(N3CCN(CCO)CC3)n2)cc1` (as salt: hydrochloride) [Example 242, 1-[4-(2-hydroxyethyl)piperazin-1-yl]-3-(4-methoxyphenyl)isoquinoline Dihydrochloride] the value was 163 to 165 °C; for `CCCC(=O)Nc1ccc(-c2cc3ccccc3c(N3CCN(CC)CC3)n2)cc1` (as salt: hydrochloride) [Example 70, 3-(4-Propylcarbonylaminophenyl]-1-(4-Ethylpiperazin-1-Yl)Isoquinoline Hydrochloride], 170 to 172 °C; for `CCN1CCN(c2nc(C(=O)c3ccccc3OC)cc3ccccc23)CC1` (as salt: oxalate) [Example 111, 3-(2-Methoxyphenylcarbonyl)-1-(4-ethylpiperazin-1-yl)isoquinoline Oxalate], 153 to 156 °C.
As for `CCN1CCN(c2nc(-c3ccc(C4=CCC(O)CC4)cc3)cc3ccsc23)CC1` (stereo not drawn) (as salt: hydrochloride) [Example 270, 5-[4-(4-hydroxycyclohexen-1-yl)phenyl]-7-(4-ethylpiperazin-1-yl)thieno[2,3-c]pyridine hydrochloride], the melting point was in the range of 168 to 170 °C.
The same measure for `CCN1CCN(c2nc(/C=C/c3ccc(OC)cc3)cc3ccccc23)CC1` (as salt: hydrochloride) [Example 190, 1-(1-Ethylpiperazin-4-Yl)-3-[Trans-2-(4-Methoxyphenyl)Ethenyl]Isoquinoline Dihydrochloride]: 227 °C (dec.).
Consider `CCN1CCN(c2nc(/C=C/c3ccc(CS(C)(=O)=O)cc3)cc3ccccc23)CC1` (as salt: oxalate) [Example 203, 3-[(E)-2-(4-Methylsulfonylmethylphenyl)Ethenyl]-1-(4-Ethylpiperazin-1-Yl)Isoquinoline Oxalate], for which the melting point lay in the range of 245 to 247 °C.
For `CCN1CCN(c2nc(C(=O)c3ccc(OC)cc3)cc3ccccc23)CC1` (as salt: oxalate) [Example 112, 3-(4-Methoxyphenylcarbonyl)-1-(4-ethylpiperazin-1-yl)isoquinoline Oxalate] the value was 176 to 179 °C.
The same measure for `CCN1CCN(c2nc(-c3ccc4c(c3)CCC4=O)cc3ccccc23)CC1` (as salt: hydrochloride) [Example 414, 1-(4-ethylpiperazin-1-yl)-3-(1-indanon-5-yl)isoquinoline]: 233 °C (dec.); for `CCN1CCN(c2nc(/C=C/c3ccc(N4CCOCC4)nn3)cc3ccccc23)CC1` (as salt: oxalate) [Example 214, 3-{(E)-2-[3-(4-Morpholinyl)Pyridazin-6-Yl]Ethenyl}-1-(4-Ethylpiperazin-1-Yl)Isoquinoline Oxalate]: 88 to 90 °C.
The molecule `CCN1CCN(c2nc(-c3ccc(NC(C)=O)cc3)cc3ccccc23)CC1` (as salt: hydrochloride) [Example 68, 3-(4-Acetamidephenyl)-1-(4-Ethylpiperazin-1-Yl)Isoquinoline Hydrochloride] had a melting point of 180 to 182 °C.
For `CCN1CCN(c2nc(-c3cccc(OCCO)c3)cc3ccoc23)CC1` (as salt: hydrochloride) [Example 298, 7-(1-ethylpiperazin-4-yl)-5-[3-(2-hydroxyethoxy)phenyl]furo[2,3-c]pyridine dihydrochloride] the value was 117 to 121 °C.
